Source: patent US5679787A, “Process for isomerization of compound of aldose structure into compound of ketose structure, and isomerization agent or accelerator used therein” (priority 1992, dated 1997)

Experiments:
[1] = Isomerization without enzyme (Example 3), maltose; conditions: remark (3): reaction time 6 h, initial pH 10.0-11.0; for Isomerization ratio Maltose NaOH: blank 34.0-38.6%; for Isomerization ratio Maltose Electrolytic water: blank 0-0.4%
[2] = Isomerization without enzyme (Example 3), ribose; conditions: remark (2): reaction time 6 h, initial pH 10.0-10.6; for Isomerization ratio Ribose NaOH: blank 3.9-19.5%; for Isomerization ratio Ribose Electrolytic water: blank 0.4-1.2%
[3] = Isomerization without enzyme (Example 3), arabinose; conditions: remark (2):, initial pH 10.0-10.6; for Isomerization ratio Arabinose NaOH: blank 3.9-19.5%; for Isomerization ratio Arabinose Electrolytic water: blank 0.4-1.2%
[4] = Isomerization without enzyme (Example 3), mannose; conditions: remark (2): reaction time 6 h, initial pH 10.0-10.6; for Isomerization ratio Mannose NaOH: blank 3.9-19.5%; for Isomerization ratio Mannose Electrolytic water: blank 0.4-1.2%
[5] = Isomerization without enzyme (Example 3), xylose; conditions: remark (2): reaction time 6 h, initial pH 10.0-10.6; for Isomerization ratio Xylose NaOH: blank 3.9-19.5%; for Isomerization ratio Xylose Electrolytic water: blank 0.4-1.2%
Procedure: [The procedure below names another target; the source says it served here with some conditions changed.] (§1) 200 μl of the 14% or 28% glucose solution and 200 μl of the organogermanium compound solution (pH 8.00 or 8.53) were placed in a small test tube. Also, 200 μl of the 14% or 28% glucose solution and 200 μl of the weakly alkaline electrolytic water were placed in a small test tube. Each test tube was thoroughly shaken and then placed in a water bath of 80° C. to give rise to a reaction. 1-3 hours later, 50 μl of the reaction mixture was added to 50 μl of 0.5N HClO4 to terminate the reaction. Thereafter, the mixture was diluted 100-fold with deionized water to determine the amount of formed fructose and the amount of residual glucose by high-performance liquid chromatography using 7A (a column) manufactured by Shimadzu Corp.
Other compounds represented by formula (I) were subjected to 3-hour isomerization in the same manner as in Example 2.

[6] = Isomerization without enzyme (Example 3), lactose; conditions: remark (3): reaction time 6 h, initial pH 10.0-11.0; for Isomerization ratio Lactose NaOH: blank 34.0-38.6%; for Isomerization ratio Lactose Electrolytic water: blank 0-0.4%
[7] = Isomerization without enzyme (Example 3), glucose; conditions: remark (1): initial pH 8.0-8.53; for Isomerization ratio Glucose NaOH: blank 32.3%; for Isomerization ratio Glucose Electrolytic water: blank 2.1-3.1%
Procedure: as §1, with “1-3 hours later, 50 μl of the reaction mixture was added to 50 μl of 0.5N HClO4 to terminate the reaction.” left out, “Corp. […]” for “Corp.”

glucose isomerase = assay: Enzymatic isomerization of glucose into fructose in presence of organogermanium compound (Example 1); type: biochemical, Streptomyces griseofuscus S-41; conditions: 60° C., pH 8.0, substrate solution 40% glucose and 1.2M organogermanium compound, blank 50%
Procedure: A solution containing 40% glucose and 1.2M organogermanium compound was prepared according to the following procedure. 0.8 g of anhydrous glucose was dissolved in 0.8 ml of deionized water. To the solution was added, in small portions, 0.407 g of the organogermanium compound (1) as an isomerization accelerator of the present invention [a compound represented by formula (II) wherein n=1, R1 =R2 =R3 and X1 =OH] while the pH of the solution was maintained at very weak alkalinity, to completely dissolve the compound in the solution. Thereto was added 4.9 mg of magnesium sulfate, and the pH of the resulting mixture was adjusted to 8.0. Then, deionized water was added to make the total volume 2.0 ml, whereby a substrate solution was prepared.
Two other substrate solutions containing the organogermanium compounds (18) [a compound represented by formula (II) wherein n=1, R1 =R2 =H, R3 =NH2 and X1 =OH] and (23) [a compound represented by formula (II) wherein n=1, R1 =H, R2 =C6 H5, R3 =NH2 and X1 =OH], respectively, were prepared in the same manner as above except that the organogermanium compounds (18) and (23) were used in amounts of 0.443 g and 0.638 g, respectively (these amounts corresponded to 1.2M of germanium).
An isomerization enzyme (glucose isomerase) extracted from the cells of Streptomyces griseofuscus S-41 was purified according to a known method using an ion exchange column, a gel filtration column or the like, until a single band was obtained electrophoretically. The resulting purified enzyme was used as a standard enzyme.
In a small test tube were placed 0.7 ml of the above substrate solution, 0.1 ml of a 200 mM MOPS buffer solution (pH 8.0) and 0.2 ml of a solution containing the above-prepared standard enzyme (5.69 mg/ml). […] The amount of formed fructose in the microvial was determined by high-performance liquid chromatography using a column [LC7A, SCR-101 (N) manufactured by Shimadzu Corp.] to examine the change with time, of ratio of isomerization of glucose into fructose.

[8] = Isomerization of glucose without enzyme, weakly alkaline electrolytic water or NaOH (Example 2)
Procedure: Water was passed through an apparatus for electrolysis [e.g. Microcluster (trade name) manufactured by Asahi Glass Co., Ltd.]. The alkaline portion of the resulting electrolytic water was taken to use as a weakly alkaline electrolytic water.
14 g or 28 g of anhydrous glucose was dissolved in about 80 ml of the weakly alkaline electrolytic water prepared above. The same electrolytic water was further added to make the total volume 100 ml, whereby a 14% glucose solution and a 28% glucose solution were prepared. The 14% glucose solution had pH 9.1 and the 28% glucose solution had pH 8.61, right after the preparation.
1.847 g of the organogermanium compound (18) was weighed and added to about 2 ml of deionized water. The mixture was made weakly alkaline (pH 8.00 or 8.53) with a small amount of sodium hydroxide. The same deionized water was further added to make the total volume of 3 ml. The final concentration of the compound (18) in the solution was 1.67M.
as §1

SMILES | Isomerization ratio Maltose NaOH [1] [%] | Isomerization ratio Maltose Electrolytic water [1] [%] | Isomerization ratio Ribose NaOH [2] [%] | Isomerization ratio Ribose Electrolytic water [2] [%] | Isomerization ratio Arabinose NaOH [3] [%] | Isomerization ratio Arabinose Electrolytic water [3] [%] | Isomerization ratio Mannose NaOH [4] [%] | Isomerization ratio Mannose Electrolytic water [4] [%] | Isomerization ratio Xylose NaOH [5] [%] | Isomerization ratio Xylose Electrolytic water [5] [%] | Isomerization ratio Lactose NaOH [6] [%] | Isomerization ratio Lactose Electrolytic water [6] [%] | Isomerization ratio Glucose NaOH [7] [%] | Isomerization ratio Glucose Electrolytic water [7] [%] | isomerization ratio in equilibrium (glucose isomerase) [%] | Isomerization ratio (%) ([8]; Run 1 (Ge), glucose concentration 14%, pH of reaction mixture 7.17, electrolytic water, 80° C., 1-3 hours) | Isomerization ratio (%) ([8]; Run 3 (Ge), glucose concentration 7%, pH of reaction mixture 7.52, electrolytic water, 80° C., 1-3 hours) | Isomerization ratio (%) ([8]; Run 5 (Ge), glucose concentration 14%, pH of reaction mixture 7.81, electrolytic water, 80° C., 1-3 hours) | Isomerization ratio (%) ([8]; Run 7 (Ge), glucose concentration 7%, pH of reaction mixture 8.15, electrolytic water, 80° C., 1-3 hours) | Isomerization ratio (%) ([8]; Run 9 (Na, Ge), sodium hydroxide, glucose concentration 14%, pH of reaction mixture 8.61, 80° C.)
C[CH](CC(=O)O)[Ge](=[O])[O][Ge](=[O])[CH](C)CC(=O)O (centres unmarked) [Compound 2] | 67.4 | 44.4 | 41.8 | 12.8 | 20.3 | 10.1 | 22.6 | 11.4 | 20.3 | 7.2 | 68.3 | 43.4 | 97.9 | 95.8 | – | – | – | – | – | –
CC([CH2][Ge](=[O])[O][Ge](=[O])[CH2]C(C)C(=O)O)C(=O)O (centres unmarked) [Compound 3] | 53.7 | 43.7 | 30.0 | 17.4 | 18.5 | 10.2 | 21.3 | 9.3 | 24.5 | 7.6 | 74.1 | 28.9 | 96.3 | 86.2 | – | – | – | – | – | –
CC(C(=O)O)[CH](C)[Ge](=[O])[O][Ge](=[O])[CH](C)C(C)C(=O)O (centres unmarked) [Compound 4] | 46.5 | 36.2 | 36.3 | 10.3 | 14.3 | 7.0 | 22.4 | 10.6 | 22.3 | 7.0 | 66.4 | 17.7 | 96.4 | 77.6 | – | – | – | – | – | –
C[C](C)(CC(=O)O)[Ge](=[O])[O][Ge](=[O])[C](C)(C)CC(=O)O [Compound 5] | 69.4 | 38.4 | 37.6 | 8.6 | 17.8 | 3.4 | 20.5 | 9.7 | 20.3 | 6.1 | 68.8 | 17.2 | 93.4 | 75.3 | – | – | – | – | – | –
O=C(O)C[CH](c1ccccc1)[Ge](=[O])[O][Ge](=[O])[CH](CC(=O)O)c1ccccc1 (centres unmarked) [Compound 6] | 69.3 | 20.0 | 40.1 | 11.3 | 24.4 | 13.4 | 22.8 | 16.4 | 33.2 | 8.3 | 73.6 | 15.5 | 94.8 | 83.8 | – | – | – | – | – | –
NC([CH2][Ge](=[O])[O][Ge](=[O])[CH2]C(N)C(=O)O)C(=O)O (centres unmarked) [Compound 18] | – | – | – | – | – | – | – | – | – | – | – | – | – | – | 80 | 48.0 | 73.1 | 65.0 | 94.7 | 98.9
NC(C(=O)O)[CH](c1ccccc1)[Ge](=[O])[O][Ge](=[O])[CH](c1ccccc1)C(N)C(=O)O (centres unmarked) [Compound 23] | – | – | – | – | – | – | – | – | – | – | – | – | – | – | 99 | – | – | – | – | –
